US5620892A, “Strain of Saccharomyces cerevisiae expressing the gene encoding potassium transporter minK” (priority 1993, dated 1997)

Columns and labels:
[1] = biological target: T1, HminK (Homo sapiens, UniProt P15382, S38G); test: Inhibition of growth in agar, HminK strain; assay type: cell-based; set-up: key: + indicates compound produced a zone on inhibition; settings: cultures grown in inducing medium (2% galactose) embedded in agar; scored after 48-hour incubation at 30° C.
T1 construct: mRNA in Xenopus oocytes (A3)
Procedure: (§1) Cultures of strains containing the pGAL::HminK plasmid or the pGAL::TRK1 plasmid were grown in inducing media (2% galactose) at 30° C. with vigorous aeration. Inhibitors were added to cultures over a range of concentrations. Samples were removed at various intervals and the optical density at 600 nm was determined. Growth measurements were normalized to values obtained for growth in the absence of drug and are plotted as Relative Growth versus concentration (FIG. 6). Similar cultures grown in inducing medium were embedded in agar and assessed for growth in presence of the compounds listed in Table 1. Plates were scored after a 48-hour incubation at 30° C.; "+" denotes growth inhibition.

[2] = biological target: T1, HminK; test: Challenge of the pGAL::HminK-transformed double mutant on agar plates at 100 mM and 0.1 mM KCl; assay type: cell-based; settings: clofilium 100 μM; 100 mM and 0.1 mM potassium chloride
Procedure: (§2) In another experiment, the double mutant was transformed with pGAL vector including either TRK1 or HminK as described above. The transformed strains were then separately challenged with clofilium (100 μM) and dofetilide […] at 100 mM and 0.1 mM of potassium chloride.
(§3) Cultures of K^+ transporter mutant strains containing either pYES2 vector, pGAL::TRK1 or pGAL::HminK plasmids were grown in inducing media (2% galactose) at 30° C. with vigorous aeration. A. Serial dilutions of each culture were spotted onto agar plates containing either 100 mM or 0.1 mM. KCl. B. Serial dilutions of strains containing pGAL::TRK1 or pGAL::HminK plasmids were spotted onto agar plates containing 100 μM clofilium or 1 μM dofetilide at both KCl concentrations. All plates were incubated at 30° C. and scored after 2 days.

[3] = biological target: T2, TRK1 (Saccharomyces cerevisiae, UniProt P12685); test: Challenge of the pGAL::TRK1-transformed double mutant on agar plates at 100 mM and 0.1 mM KCl; assay type: cell-based; settings: clofilium 100 μM; 100 mM and 0.1 mM potassium chloride
T2 sequence (P12685 1-1235): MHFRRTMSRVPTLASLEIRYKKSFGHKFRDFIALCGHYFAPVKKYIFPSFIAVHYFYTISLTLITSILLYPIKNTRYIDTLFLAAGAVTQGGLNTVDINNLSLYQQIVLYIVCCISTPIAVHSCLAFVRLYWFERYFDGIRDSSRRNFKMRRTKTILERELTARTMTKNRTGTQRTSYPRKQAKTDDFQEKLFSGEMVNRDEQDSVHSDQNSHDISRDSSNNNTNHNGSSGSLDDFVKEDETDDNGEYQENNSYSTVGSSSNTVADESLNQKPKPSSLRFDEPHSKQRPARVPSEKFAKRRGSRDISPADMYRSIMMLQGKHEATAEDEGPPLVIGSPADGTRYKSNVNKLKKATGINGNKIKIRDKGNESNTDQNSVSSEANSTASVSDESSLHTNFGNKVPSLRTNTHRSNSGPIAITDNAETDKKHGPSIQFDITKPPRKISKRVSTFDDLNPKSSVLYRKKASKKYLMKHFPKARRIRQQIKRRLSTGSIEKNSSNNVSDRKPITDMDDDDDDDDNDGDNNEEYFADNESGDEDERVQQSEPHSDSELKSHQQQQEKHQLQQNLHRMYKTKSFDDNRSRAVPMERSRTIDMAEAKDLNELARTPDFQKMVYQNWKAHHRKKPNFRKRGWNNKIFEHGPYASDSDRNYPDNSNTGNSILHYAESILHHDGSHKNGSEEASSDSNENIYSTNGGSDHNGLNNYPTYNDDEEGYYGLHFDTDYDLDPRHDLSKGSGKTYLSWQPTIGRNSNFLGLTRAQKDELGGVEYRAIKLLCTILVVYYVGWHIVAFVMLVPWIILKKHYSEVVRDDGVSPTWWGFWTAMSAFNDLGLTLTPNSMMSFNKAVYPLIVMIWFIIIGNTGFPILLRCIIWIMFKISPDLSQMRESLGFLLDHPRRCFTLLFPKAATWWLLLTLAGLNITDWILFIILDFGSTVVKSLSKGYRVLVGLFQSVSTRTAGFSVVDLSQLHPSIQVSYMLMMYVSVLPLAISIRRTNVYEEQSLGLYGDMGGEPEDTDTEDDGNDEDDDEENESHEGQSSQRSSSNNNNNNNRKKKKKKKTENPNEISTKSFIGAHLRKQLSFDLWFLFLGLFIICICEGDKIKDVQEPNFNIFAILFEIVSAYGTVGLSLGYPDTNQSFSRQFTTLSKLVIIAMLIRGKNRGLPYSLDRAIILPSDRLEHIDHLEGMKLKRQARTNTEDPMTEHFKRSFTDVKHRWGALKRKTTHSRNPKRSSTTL
Procedure: as §2, §3

[4] = biological target: T1, HminK; test: Potassium ion currents of HminK mRNA transcripts expressed in Xenopus oocytes; assay type: cell-based; settings: Xenopus oocytes expressing the HminK transcripts; clofilium 50 μM
Procedure: For further verification, mRNA transcripts were expressed in Xenopus oocytes. The expression products caused potassium ion currents that are blocked by clofilium (50 μM) and kinetically indistinguishable from HminK currents reported in the literature. […] Ben Efraim et al., Biochemistry 32: 2371-2377 (1993).

[5] = test system: IKr; settings: rapid, rectifying component of the delayed rectifier; literature; cited from earlier work
[6] = test system: IKs; settings: slow component of the delayed rectifier; literature; cited from earlier work
[7] = test system: minK; settings: literature and personal communication; cited from earlier work
[8] = biological target: T2, TRK1; test: Inhibition of growth in agar, TRK1 strain; assay type: cell-based; set-up: key: + indicates compound produced a zone on inhibition; settings: cultures grown in inducing medium (2% galactose) embedded in agar; scored after 48-hour incubation at 30° C.
Procedure: as §1

Compound	Inhibition in agar HminK strain [1]	Block of potassium uptake in the HminK strain [2]	Block of potassium uptake in the TRK1 strain [3]	Block of potassium ion currents [4]	Block of IKr [5]	Block of IKs [6]	Blockage of minK expressed in Xenopus oocytes [7]	Inhibition in agar TRK1 strain [8]
CC[N+](CC)(CC)CC [TEA Cl]	+	–	–	–	–	–	–	–
CCCCCCC[N+](CC)(CC)CCCCc1ccc(Cl)cc1 [clofilium]	+	blocked potassium uptake in the HminK strain	not in the TRK1 strain	blocked	blocked	blocked	blockage	–
CC(C)NCC(O)c1ccc(NS(C)(=O)=O)cc1 (stereo not drawn) [d-sotalol]	–	–	–	–	blocked	not	–	–
CN(CCOc1ccc(NS(C)(=O)=O)cc1)CCc1ccc(NS(C)(=O)=O)cc1 [dofetilide]	–	–	–	–	blocked	not	–	–
C=C[C@H]1C[N@@]2CC[C@H]1C[C@@H]2[C@@H](O)c1ccnc2ccc(OC)cc12 [quinidine]	+	–	–	–	–	–	–	+
